According to patent publication US7560456B2, “Pesticidal pyridinecarboxamide derivatives” (Merial Limited, priority 2002, dated 2009):

What was measured:
[1] = tested on: black bean aphids (Aphis fabae); assay: Method B: root-systemic test, aqueous solution of the formulated preparation pipetted into the bottle of field bean (Vicia faba) populated with aphids; type: in vivo; settings: 10 ppm (based on content of active compound), 4 ml solution pipetted into bottle, after 3 and 6 days of storage, read-out: mortality among the aphids, by root-systemic action
Protocol: Germinated field bean seeds (Vicia faba) with seed roots were transferred into brown glass bottles filled with tap water. Four milliliters of an aqueous solution of the formulated preparation to be examined were pipetted into the brown glass bottle.
The field bean was then heavily populated with about 100 black bean aphids (Aphis fabae). Plants and aphids were then stored in a climatized chamber (16 hours of light/day, 25° C., 40-60% relative atmospheric humidity). After 3 and 6 days of storage, the root-systemic effect of the preparation on the aphids was determined.

[2] = tested on: black bean aphids (Aphis fabae); assay: whole plant or invertebrate; settings: in Vicia faba, read-out: mortality among the aphids

`C=CCSC(=NC(=O)c1cnccc1C(F)(F)F)NCc1ccccc1` [Compound A-724, 1-benzyl-S-(2-propenyl)-3-(4-trifluoromethyl-3-pyridylcarbonyl)isothiourea] showed a mortality at 10 ppm [1] of at least 80% and a mortality at 100 ppm [2] of at least 50%.
